Residues, ends and D or L forms follow the SMILES beside them.
Test: pH stability study of GLYX-13 150 mg/mL HCl formulations (40° C., 3 weeks), HPLC assay and related substances
Format: physicochemical
Procedure: Column: Waters Spherisorb ODS2, 3 μm, 4.6×250 mm, Part # PSS832115
Mobile phase A: 2.2 g/L heptanesulfonic acid, 6.7 g/L potassium dihydrogen phosphate, pH 2.5
Mobile phase B: 70/30 Methanol/Water
Column temperature: 40±1° C.
Sample temperature: 4±1° C.
Four formulations were prepared to examine dissolution of the drug based (Table 2). Each formulation was prepared at 35 mL and contained 5.25 g of GLYX-13.
Each formulation was prepared by adding the drug to a beaker and adjusting the volume to approximately 26 mL using purified water. The pH was adjusted using 5 M HCl that was added in small increments. The solution was mixed for 10 minutes after each adjustment and mixed for 30 minutes after reaching the desired pH. The pH of the solution was checked after 30 minutes and adjusted if needed. The solution was adjusted to 35 mL using purified water when a drift in pH was no longer observed. Each formulation was filled into vials (2.5 mL/vial), sealed with a stopper, and capped. The formulations were stored at 40° C. for 3 weeks and samples were removed weekly. All weekly samples were examined for appearance, tested for pH, assay and related substances using the HPLC assay.
Data were analyzed using the appropriate software designed for the assay and impurities HPLC method. Impurity 1 (RRT 0.43) is cyclo-proline-threonine (“diketopiperazine”). Impurity 2 (RRT 0.57) is proline-threonine amide. […]

rate of impurity formation at pH 7, fold greater than the rate at pH 4: approximately 6 fold
SMILES: CC(O)C(N)C(=O)N1CCCC1C(=O)N1CCCC1C(=O)NC(C(N)=O)C(C)O (stereo not shown) [GLYX-13] (H-TPPT-NH2; configuration not given here)
